{"source": "patent US20060121112A1", "about": "“Topiramate pharmaceutical composition” (Elan Corporation, plc, priority 2004, published 2006)", "key": {"[1]": {"details": "cited from earlier work"}, "[2]": {"assay": "Pharmacoscintigraphy regional absorption biostudy with Enterion site-specific delivery capsule, topiramate plasma concentrations", "format": "in vivo, human", "details": "for Relative Bioavailability (%) Based on AUCinf: 200 mg topiramate API, Enterion capsule, healthy volunteers; for Relative Bioavailability (%) Based on AUCinf / Relative Bioavailability (%) Based on AUClast: vs Trt A; for Lambda / tmax / Relative Bioavailability (%) Based on AUClast / AUCinf / Cmax / half-life / AUC(0-inf) / AUC(0-t): 200 mg; for half-life: read-out: t½ (converted)", "procedure": "A rational approach to obtain detailed information about how well topiramate is absorbed from the key residence areas of the gastrointestinal tract was conducted using the Enterion® site-specific delivery capsule, which is the subject of U.S. Pat. No. 6,632,216 which is incorporated herein by reference. The Enterion® site-specific delivery capsule is an easy to use non-invasive methodology for assessing regional drug absorption from the gastrointestinal tract. The capsule is 35mm in length and 10-12 mm in diameter and is capable of delivering solutions, suspensions or powders to specific sites. […] The capsules contain a drug chamber with a wide port, and therefore loading of all types of drug formulations into the capsule is relatively straightforward. Capsule activation is confirmed by means of a signal, which is emitted from the capsule when activation occurs and is relayed back to the activation unit.\nA pharmacoscintigraphy study of topiramate was conducted at Pharmaceutical Profiles, Nottingham, UK utilizing their Enterion® site-specific delivery capsule technology. This study was designed to obtain detailed information about how well topiramate is absorbed from the key residence areas of the gastrointestinal tract. The examples below are a result of a biostudy that was a randomized, 4-treatment, 4-period study, conducted in 12 healthy volunteers. The test treatments administered using an Enterion® capsule and were as follows: Trt B represents 200 mg topiramate API delivered to the proximal small bowel (PSB), Trt C represents 200 mg topiramate API delivered to the distal small bowel (DSB), Trt D represents 200 mg topiramate API delivered to the colon. The reference treatment administered was Trt A which represents 200 mg topiramate as the commercial immediate release reference formulation, Topamax™. Topiramate plasma concentrations were measured in this study.\nAnalysis of plasma samples for topiramate was carried out in accordance with Bioanalytical Services Test Method number TM154. The method involves solid phase extraction of topiramate using Oasis HLB extraction cartridges. Topiramate is analysed using LC-MS/MS.\nThe standard curves for the analytical runs in the study covered the concentration range of 10-1000 ng/mL with a limit of quantitation of 10 ng/mL. All samples were diluted 1:10 prior to analysis.\nThe following parameters were derived from the plasma concentration data: individual and mean blood drug concentration levels, individual and mean peak levels, Cmax; individual and mean AUClast and AUCinf; individual and mean time to peak concentration, tmax, relative bioavailability of test compared to alternative formulation, Frel (%)."}, "[3]": {"details": "cited from earlier work", "remark": "listed apart in the source"}, "[4]": {"details": "Trt B, proximal small bowel (PSB)"}, "[5]": {"details": "Trt B, proximal small bowel (PSB), plasma"}, "[6]": {"details": "Trt C, distal small bowel (DSB)"}, "[7]": {"details": "human, plasma, Trt B, proximal small bowel (PSB)"}, "[8]": {"details": "human, plasma, Trt C, distal small bowel (DSB)"}, "[9]": {"details": "human, plasma, other: Enterion capsule, delivered to the colon, Trt D, colon, plasma"}}, "note": "Counter-ions that a name gives are not always drawn. Like-named read-outs stand apart in the source and are kept apart here. Marks after values point to notes of the source that are not given here.", "data": [{"smiles": "CC(C)(N)Cc1ccccc1", "note": "[Phentermine hydrochloride, 1,1 -Dimethyl-2-phenethylamine hydrochloride]", "values": [{"measurement": "solubility", "setting": "[1]; in chloroform", "result": "slightly soluble"}, {"measurement": "solubility", "setting": "[1]; in ether", "result": "insoluble"}, {"measurement": "solubility", "setting": "[1]; in water and lower alcohols", "result": "soluble"}]}, {"smiles": "CC1(C)O[C@@H]2[C@@H](CO[C@@]3(COS(N)(=O)=O)OC(C)(C)O[C@@H]23)O1", "note": "[Topiramate, topiramate]", "values": [{"measurement": "Relative Bioavailability (%) Based on AUCinf", "setting": "[2]; [4]", "result": "120.88 ± 20.20", "unit": "%"}, {"measurement": "Lambda", "setting": "[2]; [4]", "result": "0.02 ± 0.01˜ h^−1"}, {"measurement": "tmax", "setting": "[2]; [4]", "result": "2.08 ± 1.08", "unit": "h"}, {"measurement": "Relative Bioavailability (%) Based on AUClast", "setting": "[2]; [4]", "result": "113.06 ± 19.46", "unit": "%"}, {"measurement": "AUCinf", "setting": "[2]; [5]", "result": "192140.44 ± 33798.87˜ ng/mL · h"}, {"measurement": "Cmax", "setting": "[2]; [5]", "result": "5255.66 ± 1870.32", "unit": "ng/mL"}, {"measurement": "Relative Bioavailability (%) Based on AUCinf", "setting": "[2]; [6]", "result": "120.99 ± 25.31$ %"}, {"measurement": "Lambda", "setting": "[2]; [6]", "result": "0.03 ± 0.01", "unit": "h⁻¹"}, {"measurement": "tmax", "setting": "[2]; [6]", "result": "3.64 ± 4.20", "unit": "h"}, {"measurement": "Relative Bioavailability (%) Based on AUClast", "setting": "[2]; [6]", "result": "125.69 ± 27.18˜ %"}, {"measurement": "AUCinf", "setting": "[2]; Trt C, distal small bowel (DSB), plasma", "result": "193203.21 ± 57012.26", "unit": "ng·h/mL"}, {"measurement": "Relative Bioavailability (%) Based on AUCinf", "setting": "[2]; Trt D, colon", "result": "111.85 ± 19.41^ %"}, {"measurement": "Lambda", "setting": "[2]; Trt D, colon", "result": "0.03 ± 0.01* h^−1"}, {"measurement": "tmax", "setting": "[2]; Trt D, colon", "result": "11.85 ± 7.44", "unit": "h"}, {"measurement": "Relative Bioavailability (%) Based on AUClast", "setting": "[2]; Trt D, colon", "result": "107.14 ± 22.73˜ %"}, {"measurement": "AUCinf", "setting": "[2]; Trt D, colon, plasma", "result": "181462.53 ± 46104.28", "unit": "ng·h/mL"}, {"measurement": "Cmax", "setting": "[2]; Trt D, colon, plasma", "result": "3878.07 ± 1267.71", "unit": "ng/mL"}, {"measurement": "enhanced bioavailability", "setting": "[2]; administered in the small or large intestine as compared to oral immediate release tablets", "result": "approximately 20%"}, {"measurement": "Cmax", "setting": "[2]; human, plasma, Trt B, proximal small bowel (PSB), plasma, read-out: Cmax", "result": "5260 ± 1870", "unit": "ng/mL"}, {"measurement": "tmax", "setting": "[2]; human, plasma, Trt B, proximal small bowel (PSB), read-out: tmax", "result": "2.1 ± 1.1", "unit": "h"}, {"measurement": "half-life", "setting": "[2]; [7]", "result": "32.7 ± 9.7", "unit": "h"}, {"measurement": "AUC(0-inf)", "setting": "[2]; [7]", "result": "192 ± 33.8", "unit": "µg·h/mL"}, {"measurement": "AUC(0-t)", "setting": "[2]; [7]", "result": "150 ± 37.9", "unit": "µg·h/mL"}, {"measurement": "Cmax", "setting": "[2]; human, plasma, Trt C, distal small bowel (DSB), plasma, read-out: Cmax", "result": "4970 ± 1200", "unit": "ng/mL"}, {"measurement": "tmax", "setting": "[2]; human, plasma, Trt C, distal small bowel (DSB), read-out: tmax", "result": "3.6 ± 4.2", "unit": "h"}, {"measurement": "half-life", "setting": "[2]; [8]", "result": "24.5 ± 6.18", "unit": "h"}, {"measurement": "AUC(0-inf)", "setting": "[2]; [8]", "result": "193 ± 57", "unit": "µg·h/mL"}, {"measurement": "AUC(0-t)", "setting": "[2]; [8]", "result": "160 ± 38.5", "unit": "µg·h/mL"}, {"measurement": "AUC(0-inf)", "setting": "[2]; [9]", "result": "181 ± 46.1", "unit": "µg·h/mL"}, {"measurement": "AUC(0-t)", "setting": "[2]; [9]", "result": "140 ± 40.7", "unit": "µg·h/mL"}, {"measurement": "Cmax", "setting": "[2]; human, plasma, other: Enterion capsule, delivered to the colon, Trt D, colon, plasma, read-out: Cmax", "result": "3880 ± 1270", "unit": "ng/mL"}, {"measurement": "tmax", "setting": "[2]; human, plasma, other: Enterion capsule, delivered to the colon, Trt D, colon, read-out: tmax", "result": "11.8 ± 7.4", "unit": "h"}, {"measurement": "half-life", "setting": "[2]; human, plasma, other: Enterion capsule, delivered to the colon, Trt D, colon", "result": "24.9 ± 5.2", "unit": "h"}, {"measurement": "metabolized in the liver", "setting": "[3]; P-450 microsomal enzyme system", "result": 15, "unit": "%"}, {"measurement": "time to peak blood levels", "setting": "[3]; following a 400 mg oral dose", "result": "about 2 hours"}, {"measurement": "Plasma protein binding", "setting": "[3]; in vivo", "result": "approximately 15%"}, {"measurement": "excreted unchanged in the urine", "setting": "[3]; in vivo", "result": "about 85%"}, {"measurement": "bioavailability", "setting": "[3]; oral administration", "result": "~100", "unit": "%"}]}]}
